# Experimental data published in US6995164B2, “Methods of treating tumors” (Rhode Island Hospital, priority 1999, dated 2006).
# “Also recorded” adds a separate entry of the source.
# Key:
# [1] = test system: SKOV-3 human ovarian tumor xenografts; test: Therapeutic effectiveness against i.p. human ovarian tumor xenografts; assay type: in vivo, female nude mice
# From the text: Fourteen days following the final Taurolidine injection, mice in all groups were sacrificed and the peritoneal cavity examined for the presence of tumors. Each experimental was repeated three times and the pooled number of animals in each group ranged from 15–21.
# Fourteen days following the final Taurolidine injection, mice in all groups were sacrificed, i.p. ovarian tumor xenografts removed and tumor weighed. Each experiment was repeated three times and the pooled number of animals in each group ranged from 15–21. Each bar represents the mean (±SE) tumor weight of 15–21 animals. ***p≦0.001, ****p≦0.0001.
# (§1) Studies to assess in vivo toxicity and therapeutic effectiveness were carried out in 6–12 week old female homozygous athymic (Hsd:athymic nude nu/nu) mice obtained from Harlan (Indianapolis, Ind.).
# To evaluate therapeutic effectiveness, mice received a single intraperitoneal injection of 5×10^6 SKOV-3 cells in a volume of 0.5 ml. Immediately thereafter, mice were randomly divided into treatment groups of 7 animals. […] Control animals received 1 ml injections of 5% Kollidon 17PF alone. Animals were examined daily and body weight recorded twice weekly. […] The mean tumor weight for each treatment group was calculated and statistical analysis of differences in the mean tumor weight between treatment groups employed the Student's t-test. p-values of ≦0.05 were considered significant.
# [2] = test system: MDR-transfected glioblastoma cells; test: Cytotoxicity to drug resistant tumor cells
# From the text: Glioblastoma cells were transfected with a gene encoding multiple drug resistance (MDR).
# [3] = test system: normal murine bone marrow cultures; test: Cytotoxic and apoptotic activity in normal primary cells; assay type: cell-based
# From the text: This observation was confirmed using normal (non-tumor) primary cells derived from animals, which are known to be free of tumors.
# [4] = test system: SKOV-3; test: Cell cycle distribution and sub-G0/G1 DNA debris by flow cytometry (propidium iodide); assay type: cell-based, human; settings: 48 h exposure
# Protocol: (§2) Three×10^5 cells were seeded in plastic tissue culture flasks. […] Control cultures received an appropriate volume of Kollidine-17P. […] The percentage of DNA debris in the sub-G0/G1 region was assessed using cytofluorometric techniques. Each bar represents the mean (±SE) of three determinations. **p≦0.01, ***p≦0.001, ****p≦0.0001
# (§3) For flow cytometry studies, 1×10^6 PA-1, SKOV-3, or NIH-3T3 cells were incubated for 24 h in appropriate media containing serum. […] Control cultures for each cell line were incubated in media containing 40 μl of 5% Kollidon 17PF alone. Forty-eight hours later, all cells were harvested by trypsinization and prepared for cytofluorometric analysis by standard methods. For example, harvested cells were resuspended in ice cold phosphate-buffered saline at a final cell density of 2×10^6 cells/ml. The cells then were stained for 30 min at room temperature in the dark with a solution of 0.05 mg/ml propidium iodide, 0.6% Igepal, and 1% sodium citrate. Flow cytometry was performed by FACScan (Becton Dickinson, Plymouth, England) using the ModFit LT program (Becton Dickinson). […]
# (§4) Three×10^5 cells were seeded in plastic tissue culture flasks. […] After an additional 48 h, cells were harvested, stained with propidium iodide, and cell cycle distribution assessed using cytofluorometric techniques. […]
# [5] = test system: panel of human and murine neoplastic cell lines; test: Cell growth inhibition across the cell line panel; assay type: cell-based; settings: 72 h, 3 d exposure; panel of human and murine tumor cell lines; read-out: IC50s, range over all cell lines evaluated
# Protocol: Included in the tumor cell line panel were ovarian tumor cells (PA-1 and SKOV-3), colon tumor cells (HCT-8, HCT-15 and HT-29), lung tumor cells (H-157, A-549 and H-596), prostate tumor cells (DU-145), glioma cells (U-251), and melanoma (MNT-1). The murine melanoma B16F10 cell line was also tested. These cell lines readily available, e.g., from the American Type Culture Collection (ATCC). Cells were cultured in appropriate growth medium at 37° C. in a humidified incubator in an atmosphere of 5% CO2. Under these growth conditions, the doubling time of all cell lines was 20–28 h.
# One ml of this cell suspension was added to each well of a 12 well cell culture plate that contained 3 ml of appropriate media plus serum. […] Control wells received 40 μl of 5% Kollidon 17PF alone. Seventy-two hours later, all cells were harvested by trypsinization and cell number determined electronically using a Coulter Model Z1 particle counter (Coulter Corp., Miami, Fla.) to assess cell growth inhibition. Each experiment was performed in duplicate and repeated a minimum of three times.
# Cells were seeded at a density of 1–5×10^4 cells in each well of a 6 well tissue culture flask. […] After three days, cells were harvested by trypsinization and cell number determined electronically. Cell growth inhibition was determined by comparison to non-Taurolidine exposed control cultures. […]
# [6] = test system: TNF; interleukins 1, 6, and 10; VEGF; TGF; test: Angiogenesis factors in patients with metastatic colon cancer; assay type: in vivo, human; settings: taurolidine-treated subjects compared to placebo
# Protocol: Patients with metastatic colon cancer were treated with taurolidine and several factors controlling angiogenesis were measured.
# [7] = test system: HL-60 human promyelocytic cell line; test: Apoptosis induction in non-adherent cancer cell model; assay type: cell-based
# [8] = test system: NIH-3T3; test: Western-blot analysis of PARP cleavage; assay type: cell-based, murine; settings: 24 h exposure to 50 or 100 μM
# Protocol: (§5) Two×10^6 cells were seeded in 150 cm^2 tissue culture flasks. […] After an additional twenty-four hours, cells were harvested, cell number determined, and aliquots derived from equal cell numbers generated from each exposure condition. Total proteins from these whole cell lysates were separated by SDS-PAGE and transferred to nitrocellulose filters. Filters were then immunoblotted to detect intact PARP protein and cleavage fragments by using the clone C-2-10 mouse monoclonal anti-PARP antibody (Zymed Laboratories, San Francisco, Calif.). The resulting protein-antibody complexes were visualized by chemiluminescence techniques.
# (§6) Western-blot analysis was used to assess of PARP cleavage. Two×10^6 cells were seeded into separate 75 cm^2 tissue culture flasks containing 20 ml of tissue culture media plus serum. […] Twenty-four hours after the addition of Taurolidine, cells were harvested, cell number determined, and aliquots containing an equal cell number were generated from each exposure condition. Total proteins from whole cell lysates generated from these aliquots were separated by SDS-PAGE and electrotransferred to nitrocellulose filters. Filters were then processed to detect intact PARP protein and cleavage fragments by using the clone C-2-10 mouse monoclonal anti-PARP antibody (Zymed Laboratories, San Francisco, Calif.). […]
# [9] = test system: PA-1; test: Cell cycle distribution and sub-G0/G1 DNA debris by flow cytometry (propidium iodide); assay type: cell-based, human
# Protocol: Three×10^5 cells were seeded in plastic tissue culture flasks. […] Control cultures received an appropriate volume of Kollidine-17P. […] The percentage of DNA debris in the sub-G0/G1 region was assessed using cytofluorometric techniques.
# For flow cytometry studies, 1×10^6 PA-1, SKOV-3, or NIH-3T3 cells were incubated for 24 h in appropriate media containing serum. […] Control cultures for each cell line were incubated in media containing 40 μl of 5% Kollidon 17PF alone. Forty-eight hours later, all cells were harvested by trypsinization and prepared for cytofluorometric analysis by standard methods. For example, harvested cells were resuspended in ice cold phosphate-buffered saline at a final cell density of 2×10^6 cells/ml. The cells then were stained for 30 min at room temperature in the dark with a solution of 0.05 mg/ml propidium iodide, 0.6% Igepal, and 1% sodium citrate. Flow cytometry was performed by FACScan (Becton Dickinson, Plymouth, England) using the ModFit LT program (Becton Dickinson). Statistical analysis was performed with the Kruskal Wallis non-parametric ANOVA test followed by Dunn's multiple comparisons test using Instat.
# as §4
# [10] = test system: glioblastoma multiforma; test: Clinical use, intravenous infusion in advanced recurrent glioblastoma multiforma; assay type: in vivo, human; settings: 20 g i.v. over 6 hours twice a week, at least one 5 week regimen
# Protocol: Four patients, which were diagnosed with advanced recurrent glioblastoma multiforma, were treated with taurolidine. The prognosis for this group of patients was determined to be approximately 8 weeks of survival.
# [11] = Clinical tolerability (i.p. lavage in recurrent ovarian tumors, systemic in glioblastoma); assay type: in vivo, human; settings: i.p. lavage after surgery (ovarian) or systemic (glioblastoma)
# Protocol: Taurolidine was administered by i.p. lavage immediately following surgery for removal of recurrent ovarian tumors. For patients with glioblastoma, Taurolidine was administered systemically.
# [12] = Taurolidine-induced toxicity, 3 consecutive daily i.p. bolus injections; assay type: in vivo
# Protocol: as §1
# Control animals received 1 ml injections of 5% Kollidon 17PF alone. Animals were examined daily and body weight recorded twice weekly. A reduction in body weight of greater than 10% was considered significant. The maximally tolerated dose (MTD) was considered to be the dose which produced ˜10% mortality.
# During the injection regimen, and daily thereafter for 30 d, mice were weighed and examined. Experiments were repeated a minimum of three times and mortality and weight loss data pooled.
# [13] = test system: PA1 human ovarian cells; test: Cell cycle kinetics and DNA fragmentation after 24-hour exposure; assay type: cell-based
# From the text: (§7) This DNA fragmentation was not observed in normal 3T3 cells.
# [14] = test system: 3T3 cells; test: as above; assay type: cell-based
# From the text: as §7
# [15] = test system: aerobic and anaerobic bacterial strains; settings: depending on the bacterial strain evaluated; cited from earlier work
# [16] = test system: tumor cells; test: Apoptosis of tumor cells in culture; assay type: cell-based
# [17] = test system: PA-1; test: Western-blot analysis of PARP cleavage; assay type: cell-based, human; settings: 24 h exposure to 50 or 100 μM
# Protocol: as §5, §6
# [18] = test system: SKOV-3; test: Western-blot analysis of PARP cleavage; assay type: cell-based, human; settings: 24 h exposure to 50 or 100 μM
# Protocol: as §5, §6
# [19] = test system: human ovarian tumor cells; test: Growth of established tumor cell colonies in vitro; assay type: cell-based; settings: 24-hour exposure to 50 μM
# Protocol: (§8) Parallel studies were carried out to assess whether disruption of cell adhesion played a role in the cytotoxic activity.
# [20] = test system: NIH-3T3; test: Cell cycle distribution and sub-G0/G1 DNA debris by flow cytometry (propidium iodide); assay type: cell-based, murine; settings: 48 h exposure
# Protocol: as §2, §3, §4
# [21] = test system: human cancer cell lines; test: In vitro cytotoxic activity survey of human cancer cell lines; assay type: cell-based
# Protocol: as §8
smiles,measurement,setting,value
"O=S1(=O)CCN(CN2CCS(=O)(=O)NC2)CN1 [Taurolidine, Bis-(1,1-dioxoperhydro-1,2,4-thiadiazinyl-4)methane]","tumor formation, ascites development and growth",[1]; 3 d 20 mg/mouse regimen initiated on the day of tumor cell injection,highly effective and inhibited tumor formation
same,tumor growth inhibition,[1]; single cycle initiated 5 d after tumor cell injection (established i.p. tumors),capable of significantly inhibiting tumor growth
same,mean tumor size in treated mice versus controls,[1]; therapy delayed for up to 3 d after tumor cell injection,significantly smaller than in controls
same,cytotoxicity,"[2]; MDR-transfected glioblastoma cells, 50 μM",Significant cytotoxicity
same,concentration required to inhibit cell proliferation,[3],concentrations in the mM range were required to inhibit cell proliferation
same,effect on cell cycle distribution (in words),[4],concentration-dependent decrease in the percentage of cells in G0/G1 but increased the percentage of cells in both the S-phase and G2/M
same,DNA debris in the sub-G0/G1 region,[4]; concentration-dependent,significantly increased DNA debris in the sub-G0/G1 region; also recorded: appearance of DNA debris in the sub-G0G1 region
same,IC50,[5],9.6 to 34.2 µM
same,"factors controlling the growth of blood vessels (TNF; interleukins 1, 6, 10; VEGF; TGF)",[6],decreased
same,exposure time that induces apoptosis,[7]; HL-60,≤ 90 min
same,apoptosis pathway events,[7]; non-adherent cancer cell models,"activation of caspases 3, 8 and 9"
same,PARP cleavage,[8],little evidence of this proteolytic event
same,PARP cleavage,[8]; listed as taurolidine,PARP cleavage was not evident
same,effect on cell cycle distribution (in words),[9]; 48 h exposure to up to 100 μM,little effect on cell cycle distribution
same,DNA debris in the sub-G0/G1 region,"[9]; 48 h exposure, concentration-dependent",significantly increased DNA debris in the sub-G0/G1 region; also recorded: appearance of DNA debris in the sub-G0G1 region
same,patients in whom the tumor mass decreased or stayed the same,[10],3 out of the 4
same,tolerability in patients,[11],well tolerated
same,mortality (%),[12]; 10 mg/mouse/inj i.p. on 3 consecutive days,6%
same,mortality (%),[12]; 20 mg/mouse/inj i.p. on 3 consecutive days,13%
same,mortality (%),[12]; 25 mg/mouse/inj i.p. on 3 consecutive days,47%
same,mortality (%),[12]; 30 mg/mouse/inj i.p. on 3 consecutive days,100%
same,maximally tolerated dose (MTD),"[12]; mouse, in vivo, ip",20 mg/mouse
same,cell cycle kinetics,[13]; PA1,significantly reduced the percentage of cells in both the S- and G2/M-phases
same,DNA fragmentation,"[13]; human ovarian tumor cells, 50 μM, flow cytometry and agarose-gel electrophoresis",induced a high degree of DNA fragmentation; also recorded: overt DNA fragmentation
same,cell cycle kinetics,[14],significantly reduced the percentage of cells in both the S- and G2/M-phases
same,DNA fragmentation,"[14]; 50 μM, flow cytometry and agarose-gel electrophoresis",not observed; also recorded: not apparent
same,minimum concentration required to inhibit bacterial cell growth (MIC),[15],10 to 1000 µg/mL
same,incubation time after which apoptosis is induced,[16],one
same,PARP cleavage,[17],induced PARP cleavage; also recorded: resulted in PARP cleavage
same,PARP cleavage,[18],induced PARP cleavage; also recorded: resulted in PARP cleavage
same,cytotoxic effect against the growth of established tumor cells,[19],significant cytotoxic effect
same,DNA debris in the sub-G0/G1 region,[20],did not increase DNA debris in sub-G0/G1 region; also recorded: did not significantly affect the appearance of DNA debris
same,effect on cell cycle distribution (in words),[20],decreased the percentage of cells in G0/G1 and increased the percentage of cells in S in a concentration-dependent manner
COc1cccc2c1C(=O)c1c(O)c3c(c(O)c1C2=O)C[C@@](O)(C(=O)CO)C[C@@H]3O[C@H]1C[C@H](N)[C@H](O)[C@H](C)O1 [adriamycin],resistance of transfected cells to standard chemotherapeutic agents,[2]; MDR-transfected versus untransfected glioblastoma cells,100–1000 times
O=S1(=O)CCNCN1 [taurultam],induction of apoptotic death,[21]; cancer cells versus normal control cells,induced apoptotic death of cancer cells but not normal control cells
same,cytotoxic activity relative to taurolidine,[21]; same human cancer cell lines as for taurolidine,approximately 75%
